The values below come from ChEMBL document CHEMBL4017479, “Design, synthesis and anticancer activity of novel nopinone-based thiosemicarbazone derivatives” (Bioorg Med Chem Lett, 2017).

Where only a bound is given, the exact number is not on record here.

One experiment concerns SMMC-7721. The experiment is described as follows: Cytotoxicity against human SMMC7721 cells after 72 hrs by MTT assay. Conditions: SMMC-7721, 72 h. The experiment is classed as functional, cell-based. For orientation: Tetrazolium dyes change colour on reduction, which living cells bring about.
Experiment [1] in a line: Cytotoxicity against HLF1 cells after 72 hrs by MTT assay. It is filed as functional, cell-based. Conditions: Homo sapiens, HLF1, 72 h.
A further experiment concerns MDA-MB-231. Put plainly: cells. Conditions: Homo sapiens, MDA-MB-231, 72 h.
The subject of a further experiment is HeLa. The experiment is described as follows: cells. The conditions noted are these: Homo sapiens, 72 h.

Description for HeLa: Cytotoxicity against human HeLa cells after 72 hrs by MTT assay
Description for MDA-MB-231: Cytotoxicity against human MDA-MB-231 cells after 72 hrs by MTT assay

Usually IC50 stands for the concentration at which inhibition is half-maximal. A high value points to lower potency. Turning to `COc1cc([C@@H]2c3cc4c(cc3[C@@H](O[C@@H]3O[C@@H]5CO[C@@H](C)O[C@H]5[C@H](O)[C@H]3O)[C@H]3COC(=O)[C@H]23)OCO4)cc(OC)c1O` [ETOPOSIDE], the half-maximal inhibitory concentration (IC50) in the experiment on SMMC-7721 is 40.4 µM; in experiment [1] it was > 40 µM; with MDA-MB-231 it was 29.3 µM; in the experiment with HeLa, 7.89 µM.
